Test in all cases: DiscoverX KinomeScreen competition binding assay (kinase selectivity panel)
Assay [1] concerns the target T1, panel of ninety-seven kinases (Homo sapiens, UniProt O15530).
T1 construct: purchased DiscoverX; host or cells: E. coli (BL21-derived, T7 phage display) or HEK-293
Particulars: PDPK1; screened at 3000 nM. Here is the method: (§1) This has been investigated by testing atropisomer A-2 for off-target activity against a panel of ninety-seven kinases distributed across the kinome at a concentration of 3 μM using the DiscoverX KinomeScreen assay. The DiscoverX KinomeScreen assay is a site-directed competition binding assay which measures the binding affinity of a compound to a kinase, by use of a solid supported control compound which can bind or capture the kinases in solution. In the absence of a kinase-inhibitor test compound, all of the kinase will bind to the solid support. If a kinase-inhibitor test compound is added to the assay mix, the amount of kinase binding to the solid support will be reduced, the extent of reduction being dependent on the potency of the test compound as a kinase inhibitor. […] For most assays, kinase-tagged T7 phage strains were grown in parallel in 24-well blocks in an E. coli host derived from the BL21 strain. E. coli were grown to log-phase and infected with T7 phage from a frozen stock (multiplicity of infection=0.4) and incubated with shaking at 32° C. until lysis (90-150 minutes). The lysates were centrifuged (6,000×g) and filtered (0.2 μm) to remove cell debris. The remaining kinases were produced in HEK-293 cells and subsequently tagged with DNA for qPCR detection. Streptavidin-coated magnetic beads were treated with biotinylated small molecule ligands for 30 minutes at room temperature to generate affinity resins for kinase assays. The liganded beads were blocked with excess biotin and washed with blocking buffer (SeaBlock (Pierce), 1% BSA, 0.05% Tween 20, 1 mM DTT) to remove unbound ligand and to reduce non-specific phage binding. […] Test compounds were prepared as 40× stocks in 100% DMSO and directly diluted into the assay. All reactions were performed in polypropylene 384-well plates in a final volume of 0.02 ml. […] The beads were then re-suspended in elution buffer (1×PBS, 0.05% Tween 20, 0.5 μM non-biotinylated affinity ligand) and incubated at room temperature with shaking for 30 minutes. The kinase concentration in the eluates was measured by qPCR. Compounds that bind the kinase active site and directly (sterically) or indirectly (allosterically) prevent kinase binding to the immobilized ligand, will reduce the amount of kinase captured on the solid support. […] The strength of binding of the test molecule to the kinase can be expressed as the percent control (% Ctrl) The compound(s) were screened at 3000 nM concentration, and results for primary screen binding interactions are reported as ‘% Ctrl’, where lower numbers indicate stronger hits in the matrix on the following page(s). [formula] • negative control=DMSO (100% Ctrl) • positive control=control compound (0% Ctrl)

Assay [2] has as its target T2, panel of ninety-seven kinases (Homo sapiens, UniProt Q15303).
T2 construct: purchased DiscoverX; host or cells: E. coli (BL21-derived, T7 phage display) or HEK-293
As to conditions: ERBB4; screened at 3000 nM. On the procedure: as §1

Assay [3] concerns the target T3, panel of ninety-seven kinases (Homo sapiens, UniProt Q9HBH9).
T3 construct: purchased DiscoverX; host or cells: E. coli (BL21-derived, T7 phage display) or HEK-293
As to conditions: MKNK2; screened at 3000 nM. On the procedure:
as §1

The target in assay [4] is T4, panel of ninety-seven kinases (Homo sapiens, UniProt P36507).
T4 construct: purchased DiscoverX; host or cells: E. coli (BL21-derived, T7 phage display) or HEK-293
As to conditions: MAP2K2; screened at 3000 nM. Here is the method: as §1

The target in assay [5] is T5, panel of ninety-seven kinases (Homo sapiens, UniProt P48730).
T5 construct: purchased DiscoverX; host or cells: E. coli (BL21-derived, T7 phage display) or HEK-293
As to conditions: CSNK1D; screened at 3000 nM. On the procedure: as §1

Assay [6] has as its target T6, panel of ninety-seven kinases (Homo sapiens, UniProt Q9BWU1).
T6 construct: purchased DiscoverX; host or cells: E. coli (BL21-derived, T7 phage display) or HEK-293
Particulars: CDK19; screened at 3000 nM. Here is the method: as §1

The target of assay [7] is T7, panel of ninety-seven kinases (Homo sapiens, UniProt Q9Y463).
T7 construct: purchased DiscoverX; host or cells: E. coli (BL21-derived, T7 phage display) or HEK-293
Particulars: DYRK1B; screened at 3000 nM. Here is the method:
as §1

In assay [8] the target is T8, panel of ninety-seven kinases (Homo sapiens, UniProt P80192).
T8 construct: purchased DiscoverX; host or cells: E. coli (BL21-derived, T7 phage display) or HEK-293
Particulars: MAP3K9; screened at 3000 nM. Here is the method:
as §1

Assay [9] relates to panel of ninety-seven kinases. As to conditions: for % Ctrl @ 3 μM: screened at 3000 nM. Here is the method:
as §1

Assay [10] deals with T9, panel of ninety-seven kinases (Homo sapiens, UniProt O14920).
T9 construct: purchased DiscoverX; host or cells: E. coli (BL21-derived, T7 phage display) or HEK-293
Particulars: IKBKB; screened at 3000 nM. Here is the method:
as §1

In assay [11] the target is T10, panel of ninety-seven kinases (Homo sapiens, UniProt P21802).
T10 construct: purchased DiscoverX; host or cells: E. coli (BL21-derived, T7 phage display) or HEK-293
T10 sequence (P21802 22-821): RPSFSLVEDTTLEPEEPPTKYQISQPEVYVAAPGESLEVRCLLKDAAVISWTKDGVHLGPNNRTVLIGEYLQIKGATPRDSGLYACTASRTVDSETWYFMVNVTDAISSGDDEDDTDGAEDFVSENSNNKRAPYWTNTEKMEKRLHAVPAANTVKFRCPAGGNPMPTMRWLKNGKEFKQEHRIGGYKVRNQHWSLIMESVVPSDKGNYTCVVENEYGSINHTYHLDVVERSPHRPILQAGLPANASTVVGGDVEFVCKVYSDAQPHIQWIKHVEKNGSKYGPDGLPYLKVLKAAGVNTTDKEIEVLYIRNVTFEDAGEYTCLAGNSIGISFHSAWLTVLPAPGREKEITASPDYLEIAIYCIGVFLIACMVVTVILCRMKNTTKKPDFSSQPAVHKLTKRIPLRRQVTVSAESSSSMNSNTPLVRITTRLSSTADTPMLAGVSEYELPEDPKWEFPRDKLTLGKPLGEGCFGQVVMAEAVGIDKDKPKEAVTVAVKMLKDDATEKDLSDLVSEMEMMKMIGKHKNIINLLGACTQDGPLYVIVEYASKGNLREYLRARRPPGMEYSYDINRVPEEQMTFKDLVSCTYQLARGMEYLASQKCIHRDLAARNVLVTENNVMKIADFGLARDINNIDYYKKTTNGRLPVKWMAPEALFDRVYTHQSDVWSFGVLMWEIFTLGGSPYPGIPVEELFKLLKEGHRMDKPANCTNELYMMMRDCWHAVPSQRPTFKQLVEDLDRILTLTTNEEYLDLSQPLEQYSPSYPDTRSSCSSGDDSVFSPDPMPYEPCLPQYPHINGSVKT
Particulars: FGFR2; screened at 3000 nM. On the procedure: as §1

Assay [12] concerns the target T11, panel of ninety-seven kinases (Homo sapiens, UniProt Q9BXA7).
T11 construct: purchased DiscoverX; host or cells: E. coli (BL21-derived, T7 phage display) or HEK-293
Particulars: TSSK1B; screened at 3000 nM. On the procedure: as §1

For assay [13], the target named is T12, panel of ninety-seven kinases (Homo sapiens, UniProt P31749).
T12 construct: purchased DiscoverX; host or cells: E. coli (BL21-derived, T7 phage display) or HEK-293
Particulars: AKT1; screened at 3000 nM. On the procedure:
as §1

The target in assay [14] is T13, panel of ninety-seven kinases (Homo sapiens, UniProt P06213).
T13 construct: purchased DiscoverX; host or cells: E. coli (BL21-derived, T7 phage display) or HEK-293
As to conditions: INSR; screened at 3000 nM. On the procedure:
as §1

In assay [15] the target is T14, panel of ninety-seven kinases (Homo sapiens, UniProt P42336).
T14 construct: purchased DiscoverX; host or cells: E. coli (BL21-derived, T7 phage display) or HEK-293
T14 sequence (P42336 whole entry): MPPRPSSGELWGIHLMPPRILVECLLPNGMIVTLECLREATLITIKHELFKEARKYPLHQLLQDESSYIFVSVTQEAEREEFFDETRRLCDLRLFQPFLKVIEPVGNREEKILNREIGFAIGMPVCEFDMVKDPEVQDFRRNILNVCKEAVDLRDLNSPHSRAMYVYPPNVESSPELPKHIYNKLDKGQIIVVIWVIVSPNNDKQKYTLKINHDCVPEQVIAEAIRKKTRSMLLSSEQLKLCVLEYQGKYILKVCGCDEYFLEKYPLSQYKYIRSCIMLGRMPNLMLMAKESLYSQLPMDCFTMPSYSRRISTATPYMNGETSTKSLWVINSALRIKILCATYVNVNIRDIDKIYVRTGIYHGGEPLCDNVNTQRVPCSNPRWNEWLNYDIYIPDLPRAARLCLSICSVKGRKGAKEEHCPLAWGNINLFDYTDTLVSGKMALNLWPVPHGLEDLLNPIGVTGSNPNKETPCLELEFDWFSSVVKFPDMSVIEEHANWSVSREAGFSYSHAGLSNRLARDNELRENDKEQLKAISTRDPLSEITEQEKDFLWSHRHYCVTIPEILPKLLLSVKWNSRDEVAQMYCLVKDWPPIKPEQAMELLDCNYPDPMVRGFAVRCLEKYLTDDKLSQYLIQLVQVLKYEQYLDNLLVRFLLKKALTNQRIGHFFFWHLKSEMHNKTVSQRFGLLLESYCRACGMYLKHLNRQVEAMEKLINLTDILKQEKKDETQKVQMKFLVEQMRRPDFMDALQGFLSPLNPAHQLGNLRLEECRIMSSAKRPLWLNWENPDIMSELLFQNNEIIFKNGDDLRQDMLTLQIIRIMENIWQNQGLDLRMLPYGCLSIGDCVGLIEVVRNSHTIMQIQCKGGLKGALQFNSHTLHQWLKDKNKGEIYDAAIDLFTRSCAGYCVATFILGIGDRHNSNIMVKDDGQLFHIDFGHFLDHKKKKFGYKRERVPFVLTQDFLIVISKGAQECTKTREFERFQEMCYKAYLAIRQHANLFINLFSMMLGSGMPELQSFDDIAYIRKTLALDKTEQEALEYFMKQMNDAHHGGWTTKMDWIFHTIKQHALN
Particulars: PIK3CA; screened at 3000 nM. Here is the method: as §1

Assay [16] addresses T15, panel of ninety-seven kinases (Homo sapiens, UniProt O96013).
T15 construct: purchased DiscoverX; host or cells: E. coli (BL21-derived, T7 phage display) or HEK-293
As to conditions: PAK4; screened at 3000 nM. Here is the method:
as §1

Assay [17] addresses T16, panel of ninety-seven kinases (Homo sapiens, UniProt P07949).
T16 construct: purchased DiscoverX; host or cells: E. coli (BL21-derived, T7 phage display) or HEK-293
As to conditions: RET; screened at 3000 nM. On the procedure:
as §1

In assay [18] the target is T17, panel of ninety-seven kinases (Homo sapiens, UniProt P24941).
T17 construct: purchased DiscoverX; host or cells: E. coli (BL21-derived, T7 phage display) or HEK-293
As to conditions: CDK2; screened at 3000 nM. Here is the method: as §1

For assay [19], the target named is T18, panel of ninety-seven kinases (Homo sapiens, UniProt P50613).
T18 construct: purchased DiscoverX; host or cells: E. coli (BL21-derived, T7 phage display) or HEK-293
As to conditions: CDK7; screened at 3000 nM. Here is the method: as §1

The target in assay [20] is T19, panel of ninety-seven kinases (Homo sapiens, UniProt Q00526).
T19 construct: purchased DiscoverX; host or cells: E. coli (BL21-derived, T7 phage display) or HEK-293
T19 sequence (Q00526 whole entry): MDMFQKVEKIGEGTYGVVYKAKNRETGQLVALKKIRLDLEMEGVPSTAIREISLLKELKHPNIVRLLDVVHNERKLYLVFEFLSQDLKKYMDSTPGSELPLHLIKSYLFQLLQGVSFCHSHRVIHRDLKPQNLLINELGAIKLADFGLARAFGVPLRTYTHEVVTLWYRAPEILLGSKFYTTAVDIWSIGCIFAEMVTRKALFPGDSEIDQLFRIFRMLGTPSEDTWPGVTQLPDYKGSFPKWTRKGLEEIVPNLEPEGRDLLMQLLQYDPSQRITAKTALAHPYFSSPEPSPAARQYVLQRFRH
As to conditions: CDK3; screened at 3000 nM. On the procedure:
as §1

Assay [21] has as its target T20, panel of ninety-seven kinases (Homo sapiens, UniProt O15111).
T20 construct: purchased DiscoverX; host or cells: E. coli (BL21-derived, T7 phage display) or HEK-293
As to conditions: CHUK; screened at 3000 nM. Here is the method: as §1

Assay [22] concerns the target T21, panel of ninety-seven kinases (Homo sapiens, UniProt P29317).
T21 construct: purchased DiscoverX; host or cells: E. coli (BL21-derived, T7 phage display) or HEK-293
As to conditions: EPHA2; screened at 3000 nM. On the procedure:
as §1

T3 sequence (Q9HBH9 whole entry): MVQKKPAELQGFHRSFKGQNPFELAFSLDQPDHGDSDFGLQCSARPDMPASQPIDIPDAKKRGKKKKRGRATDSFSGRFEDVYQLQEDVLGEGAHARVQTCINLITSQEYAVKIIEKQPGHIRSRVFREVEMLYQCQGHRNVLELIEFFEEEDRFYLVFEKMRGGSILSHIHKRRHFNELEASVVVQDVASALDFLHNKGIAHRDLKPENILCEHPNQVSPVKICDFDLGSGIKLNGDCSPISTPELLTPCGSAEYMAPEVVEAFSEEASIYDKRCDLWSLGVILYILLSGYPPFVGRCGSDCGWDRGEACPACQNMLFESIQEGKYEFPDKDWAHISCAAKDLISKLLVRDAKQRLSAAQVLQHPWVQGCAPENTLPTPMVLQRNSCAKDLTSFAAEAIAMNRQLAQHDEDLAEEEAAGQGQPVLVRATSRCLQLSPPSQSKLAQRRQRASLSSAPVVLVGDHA
T21 sequence (P29317 24-976): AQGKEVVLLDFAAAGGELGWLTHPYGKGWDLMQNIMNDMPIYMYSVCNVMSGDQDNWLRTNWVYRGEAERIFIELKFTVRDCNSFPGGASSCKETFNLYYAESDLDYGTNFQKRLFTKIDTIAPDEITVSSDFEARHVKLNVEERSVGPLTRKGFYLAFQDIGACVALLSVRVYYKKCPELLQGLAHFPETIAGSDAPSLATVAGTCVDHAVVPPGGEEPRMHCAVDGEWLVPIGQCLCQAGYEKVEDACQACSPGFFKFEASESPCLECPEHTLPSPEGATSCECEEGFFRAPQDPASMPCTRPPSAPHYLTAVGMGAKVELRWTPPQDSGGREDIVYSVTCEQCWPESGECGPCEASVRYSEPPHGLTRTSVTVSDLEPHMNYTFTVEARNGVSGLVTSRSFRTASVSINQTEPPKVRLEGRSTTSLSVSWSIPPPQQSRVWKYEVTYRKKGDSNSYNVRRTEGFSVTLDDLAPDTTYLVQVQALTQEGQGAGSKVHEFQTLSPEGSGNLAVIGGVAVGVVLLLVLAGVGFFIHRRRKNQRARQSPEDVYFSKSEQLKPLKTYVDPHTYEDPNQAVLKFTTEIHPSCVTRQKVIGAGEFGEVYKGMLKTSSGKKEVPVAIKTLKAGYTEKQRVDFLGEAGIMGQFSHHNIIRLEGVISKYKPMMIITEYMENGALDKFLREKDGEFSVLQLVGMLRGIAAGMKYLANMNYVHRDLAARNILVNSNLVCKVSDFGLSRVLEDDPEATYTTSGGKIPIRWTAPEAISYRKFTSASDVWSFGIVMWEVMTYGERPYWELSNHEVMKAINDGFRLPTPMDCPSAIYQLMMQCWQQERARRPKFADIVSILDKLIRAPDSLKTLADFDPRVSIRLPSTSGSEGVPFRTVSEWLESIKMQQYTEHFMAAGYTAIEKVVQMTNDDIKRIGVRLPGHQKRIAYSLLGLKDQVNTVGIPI
T15 sequence (O96013 whole entry): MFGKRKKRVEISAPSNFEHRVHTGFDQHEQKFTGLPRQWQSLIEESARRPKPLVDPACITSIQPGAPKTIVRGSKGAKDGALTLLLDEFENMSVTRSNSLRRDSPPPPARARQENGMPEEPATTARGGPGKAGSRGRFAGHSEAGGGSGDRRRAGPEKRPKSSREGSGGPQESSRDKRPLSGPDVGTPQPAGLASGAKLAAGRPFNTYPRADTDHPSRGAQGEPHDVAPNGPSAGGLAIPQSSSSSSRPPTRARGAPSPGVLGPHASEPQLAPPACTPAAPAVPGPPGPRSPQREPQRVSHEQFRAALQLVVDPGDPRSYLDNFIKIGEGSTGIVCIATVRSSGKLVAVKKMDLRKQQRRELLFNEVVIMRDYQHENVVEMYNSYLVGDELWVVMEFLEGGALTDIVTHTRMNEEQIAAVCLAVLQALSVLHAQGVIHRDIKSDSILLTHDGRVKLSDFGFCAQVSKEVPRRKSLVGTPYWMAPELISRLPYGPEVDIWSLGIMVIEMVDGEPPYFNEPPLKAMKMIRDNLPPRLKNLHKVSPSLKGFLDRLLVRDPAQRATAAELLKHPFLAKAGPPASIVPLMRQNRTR
T20 sequence (O15111 whole entry): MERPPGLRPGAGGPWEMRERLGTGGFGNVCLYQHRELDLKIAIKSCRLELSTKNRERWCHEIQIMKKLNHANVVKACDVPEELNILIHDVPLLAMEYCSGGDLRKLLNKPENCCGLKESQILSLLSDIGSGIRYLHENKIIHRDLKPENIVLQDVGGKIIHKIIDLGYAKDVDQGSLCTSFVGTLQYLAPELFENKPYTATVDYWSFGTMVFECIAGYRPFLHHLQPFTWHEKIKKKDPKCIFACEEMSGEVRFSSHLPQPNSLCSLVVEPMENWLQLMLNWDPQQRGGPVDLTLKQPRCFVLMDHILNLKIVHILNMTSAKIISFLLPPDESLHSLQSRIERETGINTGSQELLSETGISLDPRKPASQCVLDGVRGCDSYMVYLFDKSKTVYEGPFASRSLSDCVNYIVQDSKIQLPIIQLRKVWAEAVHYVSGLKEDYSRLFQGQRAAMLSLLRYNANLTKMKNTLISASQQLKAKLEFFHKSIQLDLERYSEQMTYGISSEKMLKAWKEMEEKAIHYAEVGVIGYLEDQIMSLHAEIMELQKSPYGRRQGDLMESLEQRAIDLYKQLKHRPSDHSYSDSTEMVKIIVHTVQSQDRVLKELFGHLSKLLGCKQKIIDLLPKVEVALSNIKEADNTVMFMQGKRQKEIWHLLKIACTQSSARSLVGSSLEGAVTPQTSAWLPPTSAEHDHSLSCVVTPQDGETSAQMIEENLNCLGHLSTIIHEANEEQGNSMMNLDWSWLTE

As for `CN(C)CCNC(=O)c1ccc(-c2ccc(-c3ccc(Cl)cc3)n2-c2ccccc2C(F)(F)F)cc1` (single isomer, unassigned) [Atropisomer A-2], the “% Ctrl @ 3 μM” value in [1] is recorded as 96 % Ctrl; in [2], 99 % Ctrl; in [3], 85 % Ctrl; in assay [4], 81 % Ctrl; in [5], 91 % Ctrl; in assay [6], 81 % Ctrl. The “% Ctrl @ 3 μM” value in [7] was 97 % Ctrl; in assay [8], 96 % Ctrl; in assay [9] (EGFR), 100 % Ctrl; in assay [9] (KIT), 100 % Ctrl; in assay [10], 96 % Ctrl; in [11] it was 85 % Ctrl. For the same compound, the “% Ctrl @ 3 μM” value in [12] stood at 100 % Ctrl; in [13], 98 % Ctrl; in assay [14], 100 % Ctrl; in assay [15], 100 % Ctrl; in assay [16], 100 % Ctrl; in [17] it was 95 % Ctrl. In addition, the “% Ctrl @ 3 μM” value turned out to be 94 % Ctrl in [18]; 100 % Ctrl in assay [19]; 100 % Ctrl in [20]; 100 % Ctrl in [21]; 100 % Ctrl in assay [22]. Besides, in [9] (3 μM (3000 nM), ninety-seven kinases), the “binding activity against panel kinases (% Ctrl)” value is “poor or non-existent binding activity”.

These data come from US12637424B2, “Pharmaceutical salt of an arylpyrrole derivative” (SENTINEL ONCOLOGY LIMITED, priority 2020, dated 2026).
